Patent US12076342B2, “Method for generating progenitor t cells from stem and/or progenitor cells and use of same” (THE GOVERNING COUNCIL OF THE UNIVERSITY OF TORONTO, priority 2016, dated 2024)

Columns and labels:
[1] = system: Notch pathway (CBF1-Firefly); assay: NIH3T3 luciferase assay for measuring Notch activation; assay type: cell-based
Experimental: NIH3T3 cells were seeded at 125,000 cells/well in a 6-well plate on the previous day and transiently transfected overnight with Notch1, CBF1-Firefly and constitutively active Renilla plasmids using FuGENE® HD transfection reagent (Promega Corporation, Madison WI USA) as per the manufacturer's instructions. Transfected NIH3T3 cells were either seeded on DL4-coated plates or in DL4-conjugated MC for 24 hours prior to measuring Firefly activation normalized to Renilla expression using the dual-luciferase reporter assay system (Promega Corporation, Madison WI USA) according to the manufacturer's instructions.

[2] = system: sorted sca1+ckit+ fetal-liver HSPCs; assay: Defined T cell differentiation assay on adsorbed ligand, flow cytometry; assay type: cell-based, mouse
Experimental: FIG. 2a: Schematic for 2D coated DL4 assay, in which sorted E13.5 sca1+ckit+ fetal-liver HSPCs are seeded on coated DL4 ligand in standard 96-well flat bottom plates at 1000 cells/well density in 200 μl test media containing cytokines 25 ng/mL SCF, 5 ng/mL Flt3L and 1 ng/mL IL7; cells are re-fed on day 4 with fresh media containing cytokines; on day 7, cells are assayed for surface marker expression using flow cytometry.
Commercially available DL4-Fc was purchased and used for experiments from Sino Biologicals (Cedarlane Labs, Burlington, Ontario, Canada) or manufactured in-house as described below. DL4-Fc was diluted in chilled phosphate-buffered saline (PBS) at 10 μg/mL or […] and 50 μL/well was coated in standard tissue-culture 96-well plates overnight at 4° C. Wells were washed once with PBS prior to seeding cells to remove any unbound ligand from the wells. For certain experiments, wells were also coated overnight with 50 μL/well PBS containing DL4-Fc and VCAM-1-Fc (R&D) or fibronectin (Sigma) at concentrations described herein.
Sorted sca1+ckit+ HSPCs were cultured at 1000 cells/well (corresponding to 3.1×10^3 cells/cm^2) in DL4-coated 96-well plates in serum-free Iscove modified Dulbecco medium (Gibco, Rockville, MD) with 20% bovine serum albumin, insulin, and transferrin serum substitute (BIT; Stemcell Technologies), 1% GlutaMAX™ (Gibco) and 1 μg/mL low-density lipoproteins (Calbiochem, La Jolla, CA) [IMDM+BIT]. For positive control cultures, OP9 serum medium was used, composed of αMEM medium (Gibco) and 16% FBS (Hyclone™, GE Health). Serum-free αMEM+BIT medium was prepared exactly as IMDM+BIT medium except using αMEM (Gibco) as the base medium. OP9 serum medium, αMEM+BIT or IMDM+BIT serum free medium was added at 200 μL/well supplemented with 25 ng/mL Stem Cell Factor (SCF; R&D Systems, Minneapolis, MN), 5 ng/mL FMS-like Tyrosine Kinase 3 Ligand (Flt3L; R&D Systems) and 1 ng/mL Interleukin-7 (IL-7; R&D Systems) with a 50% medium exchange step at day 4 containing 2-fold concentrated cytokines as described previously^9. Design of Experiment (DOE) in silico modeling was performed using Design-Expert® (v10) using response surface method to investigate the combinatorial desirability of different concentrations of SCF, Flt3L and IL-7 for maximizing DN3 T-cell yield and minimizing the volume of IMDM+BIT medium. After DOE optimization, IMDM+BIT serum-free medium was added at 50 μL/well supplemented with 50 ng/mL SCF (R&D Systems), 10 ng/mL Flt3L (R&D Systems) and 10 ng/mL IL-7 (R&D Systems) unless described otherwise in the text with no medium exchange for the length of the assay. For the candidate factor screening in serum-free IMDM+BIT medium, the following proteins or small molecules were used at the concentrations listed: JAK inhibitor I (50 nM; EMD Millipore), IL-11 (10, 50, and 100 ng/mL; R&D Systems), IL-6 (10, 50, and 100 ng/mL; R&D Systems), IL-6R (100 ng/mL; R&D Systems), Ccl25 (1.5 μg/mL; R&D Systems), IL-7 (50, 100, and 200 ng/mL; R&D Systems), SDF1α (Cxcl12; 200 ng/mL; R&D Systems), and Leukemia Inhibitory Factor (LIF; 0.1, 1, and 10 ng/mL; EMD Millipore).
Surface marker staining was performed with conjugated rat anti-mouse antibodies (BD Biosciences, San Jose, CA, Table 1). All samples were analyzed on a FACSCanto™ or FACS LSRFortessa™ flow cytometer (BD Biosciences). At day 7 of culture, cells were lifted off the plate with multiple HF rinses, stained at 1:400 dilution with antibodies against CD45, CD25, CD44, CD90, CD11 b and CD19 for 20 minutes on ice. Human progenitor T-cells were stained at 1:100 dilution with antibodies against CD34, CD7, CD5 and CD45RA. Integrin expression was analyzed using antibodies against α4, β1, and β7 integrin subunits on Sca-1+cKit+ mouse HSPCs and CD34+ human umbilical blood cells. […]

[3] = system: CD34+ HSPCs derived from cord blood; assay: Fed-batch bioreactor expansion culture of human CD34+ HSPCs; assay type: cell-based; details: 500 nM, 12 days of expansion, compared to control FB cultures
Experimental: Umbilical cord blood samples were collected from consenting donors according to ethically approved procedures at Mt. Sinai Hospital (Toronto, ON, Canada). Cells were red blood cell (RBC) depleted as previously described^10, using HetaSep (StemCell Technologies). CD34+ progenitor cells were selected with the EasySep system using a human CD34+ enrichment kit (StemCell Technologies), according to the manufacturer's protocol. Freshly isolated CD34+ cells were seeded at a density of 1×10^5 total cells/mL. Cells were seeded in StemSpan-ACF medium (StemCell Technologies), supplemented with 100 ng/mL Stem Cell Factor (SCF, R&D Systems or CellGenix), 100 ng/mL FMS-like Trysine Kinase 3 Ligand (Flt3L, R&D Systems or CellGenix), 50 ng/mL Thrombopoietin (TPO, R&D Systems or CellGenix), 2 mM GlutaMAX (GIBCO) and/or 500 nM UM729 small molecule. Cells were cultured for 12 days with minimal manual manipulation during the culture period, as previously described^11.
Cells were harvested from either fed-batch or fed-batch+UM729 at day 12 and sorted for CD34+ and CD34− populations. Sorted CD34+ and CD34− cells from both culture methods were seeded along with thawed unexpanded day 0 CD34+ HSPCs at 4000 cells/96-well coated overnight with 20 μg/mL DL4 and 2.3 μg/mL VCAM-1 in serum-free IMDM+BIT medium containing 100 ng/mL SCF, Tpo, Flt3L and IL-7. […]

[4] = system: human umbilical cord blood-derived CD34+ HSPCs; assay: Human CD34+ HSPC progenitor T cell differentiation on coated plates; assay type: cell-based; details: serum-free IMDM+BIT, 9 or 14 days; matrix proteins in conjunction with DL4
Experimental: For human HSPC culture, umbilical cord blood samples were collected from consenting donors according to ethically approved procedures at Mount Sinai Hospital. CD34+ cells were isolated from the red blood cell (RBC)-lysed cord blood fraction using the EasySep™ Human CD34 Positive Selection Kit (Stemcell Technologies) according to the manufacturer's instructions. Flow cytometry was performed after every enrichment to ensure CD34 frequencies were greater than 95%. CD34+ HSPCs were cultured for 14 days on DL4 and VCAM-1 coated 96-well plates at higher seeding densities of 12,500 HSPCs/cm^2 (corresponding to 4000 cells/well). One complete medium exchange was performed at day 7 of culture and cells were returned to the same DL4 and VCAM-1 coated plates. For certain experiments, DL4-Fc was coated alone or with RetroNectin® (Takara Shuzo) or fibronectin (Sigma Aldrich) as described in the text. CD34+ cells were cultured in serum-free Iscove modified Dulbecco medium (Gibco) with 20% bovine serum albumin, insulin, and transferrin serum substitute (BIT; Stemcell Technologies), 1% GlutaMAX™ (Gibco) and 1 μg/mL low-density lipoproteins (Calbiochem). The medium was added at 50 μL/well supplemented with 100 ng/mL SCF (R&D Systems, Minneapolis, MN), 100 ng/mL Flt3L (R&D Systems), 100 ng/mL Tpo (R&D Systems) and 100 ng/mL IL-7 (R&D Systems).
Surface marker staining was performed with conjugated rat anti-mouse antibodies (BD Biosciences, San Jose, CA, Table 1). All samples were analyzed on a FACSCanto™ or FACS LSRFortessa™ flow cytometer (BD Biosciences). At day 7 of culture, cells were lifted off the plate with multiple HF rinses, stained at 1:400 dilution with antibodies against CD45, CD25, CD44, CD90, CD11 b and CD19 for 20 minutes on ice. […] Integrin expression was analyzed using antibodies against α4, β1, and β7 integrin subunits on Sca-1+cKit+ mouse HSPCs and CD34+ human umbilical blood cells. […] Flow data was analyzed and batch processed using FlowJo® software and further analyzed in Python (version 2.7.10).

soluble DL4: DL4 ligand supplied in soluble rather than adsorbed form
Notch1 intracellular domain translocation (CBF1-luciferase) ([1]; soluble DL4 added, cells on immobilized DL4): actively inhibits translocation of the intracellular domain of Notch1 receptor | DN3 cell generation in soluble ligand ([2]; 10 μg/mL soluble DL4, day 7): no DN3 cells were generated | effect of soluble ligand on induction by adsorbed DL4 ([2]; mixture of adsorbed and soluble DL4, day 7): completely inhibited the inductive effects of adsorbed DL4 ligand

COC(=O)c1ccc2c(c1)[nH]c1ncnc(NCCCN3CCCCC3)c12 [UM-729]
CD34− yield [3]: minimized CD34− yield | overall CD34+ yield [3]: enhanced overall CD34+ yield

fibronectin [reference compound]
generation of later stage progenitor T cells from CD34+ HSPCs [4]: incapable of differentiating CD7+CD34+ progenitors further along the T cell lineage

B1: DL1: Delta-like-1 (DL1), alternate Notch-1 ligand (protein, UniProt O00548 18-723, looked up)
Delta-like protein 1: QVWSSGVFELKLQEFVNKKGLLGNRNCCRGGAGPPPCACRTFFRVCLKHYQASVSPEPPCTYGSAVTPVLGVDSFSLPDGGGADSAFSNPIRFPFGFTWPGTFSLIIEALHTDSPDDLATENPERLISRLATQRHLTVGEEWSQDLHSSGRTDLKYSYRFVCDEHYYGEGCSVFCRPRDDAFGHFTCGERGEKVCNPGWKGPYCTEPICLPGCDEQHGFCDKPGECKCRVGWQGRYCDECIRYPGCLHGTCQQPWQCNCQEGWGGLFCNQDLNYCTHHKPCKNGATCTNTGQGSYTCSCRPGYTGATCELGIDECDPSPCKNGGSCTDLENSYSCTCPPGFYGKICELSAMTCADGPCFNGGRCSDSPDGGYSCRCPVGYSGFNCEKKIDYCSSSPCSNGAKCVDLGDAYLCRCQAGFSGRHCDDNVDDCASSPCANGGTCRDGVNDFSCTCPPGYTGRNCSAPVSRCEHAPCHNGATCHERGHRYVCECARGYGGPNCQFLLPELPPGPAVVDLTEKLEGQGGPFPWVAVCAGVILVLMLLLGCAAVVVCVRLRLQKHRPPADPCRGETETMNNLANCQREKDISVSIIGATQIKNTNKKADFHGDHSADKNGFKARYPAVDYNLVQDLKGDDTAVRDAHSKRDTKCQPQGSSGEEKGTPTTLRGGEASERKRPDSGCSTSKDTKYQSVYVISEEKDECVIATEV
Notch pathway activation (CBF-1 Firefly normalized to Renilla) ([1]; 24 hours, DL1-Fc at 10 and 20 μg/mL): unable to sustain progenitor T cell production or activate the Notch pathway at similar coating concentrations as DL4 ligand | generation of DN2/DN3 progenitor T cells on adsorbed ligand ([2]; same range of coating concentrations as DL4, day 7): incapable of generating DN2 or DN3 progenitor T cells

B2: IL-7: Interleukin-7 cytokine (R&D Systems) (protein, UniProt P13232 26-177, looked up)
Interleukin-7: DCDIEGKDGKQYESVLMVSIDQLLDSMKEIGSNCLNNEFNFFKRHICDANKEGMFLFRAARKLRQFLKMNSTGDFDLHLLKVSEGTTILLNCTGQVKGRKPAALGEAQPTKSLEENKSLKEQKKLNDLCFLKRLLQEIKTCWNKILMGTKEH
DN3 yield with raised IL-7 concentration ([2]; IL-7 from 2 to 10 ng/mL, 50-10-10 no-feed condition vs 25-5-1 re-feed control): significantly higher yields of T lineage-committed DN3 cells than the control
